# Test results reported in patent publication US9045551B2, “Anti-DLL4/VEGF dual variable domain immunoglobulin and uses thereof” (AbbVie Inc., priority 2012, dated 2015).
# Marks after values point to notes of the source that are not given here.
# B1: h1A11.1: humanized anti-DLL4 mAb, parent antibody; VH SEQ ID NO: 39, VL SEQ ID NO: 40 (antibody, V domains shown)
# VH: EVQLVESGGGLVQPGGSLRLSCAASGFTFSNFPMAWVRQAPGKGLEWVATISSSDGTTYYRDSVKGRFTISRDNAKNSLYLQMNSLRAEDTAVYYCARGYYNSPFAYWGQGTLVTVSS
# VL: DIQMTQSPSSLSASVGDRVTITCRASEDIYSNLAWYQQKPGKAPKLLIYDTNNLADGVPSRFSGSGSGTDFTLTISSLQPEDFATYYCQQYNNYPPTFGQGTKLEIKR
# What was measured:
# [1] = system: U87-MG human glioblastoma xenograft tumors; assay: U87-MG glioblastoma xenograft, combination with Temozolomide (Example 6); type: in vivo, female SCID mice; details: 5 mg/kg IP
# Protocol: The effect of anti-DLL4/anti-VEGF DVDs in combination with chemotherapy on tumor growth was evaluated on U87-MG human glioblastoma xenograft tumors in female SCID mice. Briefly, 3×10^6 cells were inoculated subcutaneously into the right hind flank. Tumors were allowed to establish for 22 days, at which point tumor volume was determined using electronic caliper measurements using the formula: L×W^2/2. Mice were allocated into treatment groups (n=10 per group) so that each cohort had equivalent mean tumor volume of 207 mm^3 prior to initiation of therapy. Animals were dosed intraperitoneally with a single dose of Temozolomide® and/or four weekly doses of anti-DLL4/anti-VEGF DVD, with tumor volume measured twice a week for the duration of the experiment.
# [2] = system: U87-MG human glioblastoma xenograft tumors; assay: U87-MG glioblastoma xenograft, combination with temozolomide (Example 11); type: in vivo, female SCID mice; details: 5 mg/kg IP, qdX1
# Protocol: (§1) The effect of anti-DLL4-VEGF DVD-Igs in combination with chemotherapy on tumor growth was evaluated on U87-MG human glioblastoma xenograft tumors in female SCID mice. Briefly, 3×10^6 cells were inoculated subcutaneously into the right hind flank. Tumors were allowed to establish for 13 days, at which point tumor volume was determined using electronic caliper measurements using the formula: L×W^2/2. Mice were allocated into treatment groups (n=10 per group) so that each cohort had equivalent mean tumor volume of 207 mm^3 prior to initiation of therapy. Animals were dosed with temozolomide, anti-VEGF mAb, and/or anti-DLL4-VEGF DVD-Ig at the dose and schedule in Table 30. Tumor volume was measured twice a week for the duration of the experiment.
# [3] = system: PA0123 patient-derived human pancreatic xenograft tumors; assay: PA0123 patient-derived pancreatic xenograft, combination with gemcitabine; type: in vivo, female NSG mice; details: 100 mg/kg IP, [q3dX4]X2
# Protocol: The effect of anti-DLL4-VEGF DVD-Igs in combination with chemotherapy on tumor growth was evaluated on PA0123 patient-derived human pancreatic xenograft tumors in female NSG mice. Briefly, frozen tumor fragments were implanted subcutaneously into the right hind flank. Tumors were allowed to establish for 28 days, at which point tumor volume was determined using electronic caliper measurements using the formula: L×W^2/2. Mice were allocated into treatment groups (n=7 per group) so that each cohort had equivalent mean tumor volume of 193 mm^3 prior to initiation of therapy. Animals were dosed with gemcitabine and/or anti-DLL4-VEGF DVD-Ig, at the dose and schedule in Table 31. Tumor volume was measured twice a week for the duration of the experiment.
# [4] = system: SW-48 human colon xenograft tumors; assay: SW-48 colon xenograft, combination with irinotecan; type: in vivo, female SCID mice; details: 60 mg/kg IP, q3dX4
# Protocol: as §1, with “SW-48” for “U87-MG”, “colon” for “glioblastoma”, “5×10^6” for “3×10^6”, “211” for “207”, “irinotecan,” for “temozolomide,”, “27.” for “30.”
# [5] = system: HT-29 human colon xenograft tumors; assay: HT-29 colon xenograft, combination with irinotecan; type: in vivo, female SCID mice; details: 60 mg/kg IP, q3dX4
# Protocol: The effect of anti-DLL4-VEGF DVD-Igs in combination with chemotherapy on tumor growth was evaluated on HT-29 human colon xenograft tumors in female SCID mice. Briefly, 2×10^6 cells were inoculated subcutaneously into the right hind flank. Tumors were allowed to establish for 25 days, at which point tumor volume was determined using electronic caliper measurements using the formula: L×W^2/2. Mice were allocated into treatment groups (n=10 per group) so that each cohort had equivalent mean tumor volume of 209 mm^3 prior to initiation of therapy. Animals were dosed with irinotecan and/or anti-DLL4-VEGF DVD-Ig, at the dose and schedule in Table 29. Tumor volume was measured twice a week for the duration of the experiment.
# [6] = system: SUM149PT human breast xenograft tumors; assay: SUM149PT breast xenograft, combination with paclitaxel (Table 33); type: in vivo, female SCID mice; details: 25 mg/kg IP, [q4dX3]X4
# Protocol: (§2) The effect of anti-DLL4-VEGF DVD-Igs in combination with chemotherapy on tumor growth was evaluated on SUM149PT human breast xenograft tumors in female SCID mice. Briefly, 1×10^6 cells were inoculated subcutaneously into the right hind flank. Tumors were allowed to establish for 28 days, at which point tumor volume was determined using electronic caliper measurements using the formula: L×W^2/2. Mice were allocated into treatment groups (n=9 per group) so that each cohort had equivalent mean tumor volume of 183 mm^3 prior to initiation of therapy. Animals were dosed with paclitaxel and/or anti-DLL4-VEGF DVD-Ig, at the dose and schedule in Table 33. Tumor volume was measured twice a week for the duration of the experiment.
# [7] = system: MDA-MB-231-luc human breast xenograft tumors; assay: MDA-MB-231-luc breast xenograft, combination with paclitaxel; type: in vivo, female SCID mice; details: 25 mg/kg IP, q4dX3
# Protocol: The effect of anti-DLL4-VEGF DVD-Igs in combination with chemotherapy on tumor growth was evaluated on MDA-MB-231-luc human breast xenograft tumors in female SCID mice. Briefly, 2×10^6 cells were implanted in the mammary fat pad. Tumors were allowed to establish for 13 days, at which point tumor volume was determined using electronic caliper measurements using the formula: L×W^2/2. Mice were allocated into treatment groups (n=10 per group) so that each cohort had equivalent mean tumor volume of 150 mm^3 prior to initiation of therapy. Animals were dosed with paclitaxel and/or anti-DLL4-VEGF DVD-Ig, at the dose and schedule in Table 32. Tumor volume was measured twice a week for the duration of the experiment. Additionally, bioluminescent images were acquired to monitor and track spontaneous metastasis of cancer cell to the lung and/or lymph nodes Results are shown in Table 32.
# [8] = system: SUM149PT human breast xenograft tumors; assay: SUM149PT breast xenograft, combination with paclitaxel and anti-VEGF mAb (Table 34); type: in vivo, female SCID mice; details: 25 mg/kg IP, [q4dX3]X4; day 18 post size match
# Protocol: as §2, with “25” for “28”, “(n=10” for “(n=9”, “228” for “183”, “paclitaxel, anti-VEGF mAb” for “paclitaxel”, “34.” for “33.”
# human DLL4529 = molecular target: T1, human DLL4529 (Homo sapiens, UniProt Q9NR61); assay: BIACORE surface plasmon resonance binding kinetics, human DLL4; details: BIAcore human DLL4529, 25° C.
# T1 construct: a purified recombinant DLL4 extracellular domain (ECD)
# Protocol: A BIACORE assay (Biacore, Inc, Piscataway, N.J.) was used to evaluate the binding of DVDs to a purified recombinant DLL4 extracellular domain (ECD) or to VEGF165, as determined by surface plasmon resonance-based measurements made on a Biacore 2000, Biacore 3000 or Biacore T100 (GE Healthcare, Piscataway, N.J.) at 25° C. For DLL4 binding kinetic measurements the assay buffer was HBS-EPB: 10 mM Hepes, pH7.5, 150 mM NaCl, 3 mM EDTA, 0.005% Tween 20, 0.1 mg/ml BSA (Sigma A7906). For VEGF binding kinetic measurements the assay buffer was HBS-EP+(3N01B): 10 mM Hepes, pH7.5, 300 mM NaCl, 3 mM EDTA, 0.05% Tween 20, 0.1 mg/ml BSA (Sigma A7906). For example, approximately 9000 RU of goat anti-human Fc specific polyclonal antibody (Thermo Fisher Scientific Inc., Rockford, Ill.) diluted in 10 mM sodium acetate (pH 4.5) is directly immobilized across a CM5 research grade biosensor chip using a standard amine coupling kit according to manufacturer's instructions and procedures at 25 ug/ml. […] The equilibrium dissociation constant KD (M) of the reaction between antibodies and the target antigen is then calculated from the kinetic rate constants by the following formula: KD=Koff/Kon. Binding is recorded as a function of time and kinetic rate constants are calculated. In this assay, on-rates as fast as 10^6 M^−1s^−1 and off-rates as slow as 10^−6 s^−1 can be measured.
molecule,measurement,setting,value
"Cn1nnc2c(C(N)=O)ncn2c1=O [Temozolomide, reference compound]",% TGI (Percent tumor growth inhibition),"[1]; qdX1, day 19 post size match",65*** %
same,% TGD (Percent tumor growth delay),"[1]; qdX1, endpoint of 1000 mm^3",45*** %
same,% TGI (Percent tumor growth inhibition),[2]; day 19 post size match,65*** %
same,% TGD (Percent tumor growth delay),[2]; endpoint of 1000 mm^3,45*** %
"Nc1ccn([C@@H]2O[C@H](CO)[C@@H](O)C2(F)F)c(=O)n1 [gemcitabine, reference compound]",% TGI (Percent tumor growth inhibition),[3]; day 38 post size match,48** %
same,% TGD (Percent tumor growth delay),[3]; endpoint of 1000 mm^3,43** %
"CCc1c2c(nc3ccc(OC(=O)N4CCC(N5CCCCC5)CC4)cc13)-c1cc3c(c(=O)n1C2)COC(=O)[C@]3(O)CC [irinotecan, reference compound]",% TGI (Percent tumor growth inhibition),[4]; day 18 post size match,77*** %
same,% TGD (Percent tumor growth delay),[4]; endpoint of 1000 mm^3,106*** %
same,% TGI (Percent tumor growth inhibition),[5]; day 20 post size match,47* %
same,% TGD (Percent tumor growth delay),[5]; endpoint of 1000 mm^3,60* %
"CC(=O)O[C@H]1C(=O)[C@@]2(C)[C@H]([C@H](OC(=O)c3ccccc3)[C@]3(O)C[C@H](OC(=O)[C@H](O)[C@@H](NC(=O)c4ccccc4)c4ccccc4)C(C)=C1C3(C)C)[C@]1(OC(C)=O)CO[C@@H]1C[C@@H]2O [paclitaxel, reference compound]",% TGI (Percent tumor growth inhibition),[6]; day 22 post size match,60*** %
same,% TGD (Percent tumor growth delay),[6]; endpoint of 1000 mm^3,173*** %
same,% met incidence (Percent of animals with detectable signal in the lung and/or lymph nodes),"[7]; bioluminescent imaging, day 22 post size match, treatment control group 100%",40* %
same,% TGI (Percent tumor growth inhibition),[7]; day 15 post size match,78*** %
same,% TGD (Percent tumor growth delay),[7]; endpoint of 1000 mm^3,106*** %
same,% TGI (Percent tumor growth inhibition),[8],50* %
B1,Koff,human DLL4529,0.00193 s⁻¹
same,Kon,human DLL4529,160000 M⁻¹ s⁻¹
